# Assay results: patent US11548935B2 (NeoMatrix Therapeutics Inc., priority 2016, dated 2023)
# “Also recorded” adds a separate entry of the source. Peptide text beside a SMILES is read from it.
# What was measured:
# [1] = test system: Adult human dermal fibroblasts CF31 cells; assay: Fibroblast metabolism (XTT) assay with 1 nM PDGF-BB, 6 days; assay type: cell-based; details: FIG. 4, XTT
# Protocol: Adult human dermal fibroblasts CF31 cells at 1000 cells/well were seeded in a collagen-coated 96-well plate in DMEM overnight, then 1 nM PDGF-BB with peptides at indicated doses was added and cells were incubated at 37° C. for 6 days. Then cell metabolism was measured by XTT assay by reading OD at 450 nm. Each point represents the mean of 6 replicates with a typical SD=5-10% around the mean (not shown for graft clarity).
# Adult human dermal fibroblasts, CF31, at 1000 cells/well were incubated at 37° C. in a collagen-coated 96-well plate with DMEM, 1 nM PDGF-BB with peptides at indicated doses for 6 days and then cell metabolism was measured by XTT assay, reading OD at 450 nm. Data represent the mean of 6 replicates.
# P12, P46, cNP7 and cNP8 were compared for their ability to promote the survival of adult human dermal fibroblasts in the presence of PDGF-BB. Adult human dermal fibroblasts at 1000 cells/well were incubated in a collagen-coated 96-well plate with DMEM, 1 nM PDGF-BB with peptides at indicated doses for 6 days and then cell metabolism was measured by XTT assay. Data represent the mean of 6 replicates (FIG. 4).
# PDGF-BB = PDGF-BB (Homo sapiens, UniProt P01127); assay: Surface plasmon resonance (Biacore) binding to growth factor; details: plasmon surface resonance (Biacore T200)
# Chain of PDGF-BB (P01127 82-190 limits assumed): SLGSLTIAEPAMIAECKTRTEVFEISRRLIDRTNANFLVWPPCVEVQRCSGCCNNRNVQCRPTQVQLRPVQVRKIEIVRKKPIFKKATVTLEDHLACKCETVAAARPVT
# Protocol: (§1) To study the binding activities of these peptides, real time interactions of P12, P46, and cNP8 with growth factors were determined by plasmon surface resonance (Biacore T200).
# In the Biacore2000 system, binding constants from kinetic data are determined by passing varying concentrations of FN peptides (analytes) over chip surfaces which are coupled with PDGF-BB (ligand), respectively. All kinetic experiments are carried out at 20° C. at a flow rate of 20 μl/min. For mass transport experiments, each analyte is injected at a fixed concentration and run at flow rates ranging from 5 to 75 μl/min. All analytes are injected over PDGF-BB ligand surfaces as well as over a control surface for 120 s, followed by 300 s of dissociation in running buffer. Regeneration of the sensor chip for subsequent injections is accomplished by pulse of 0.1% SDS. Mass transport experiments have detected little difference in response at different flow rates thus validating data from kinetic experiments. Sensorgrams are prepared and globally fitted using nonlinear least-squares analysis and numerical integration of the differential rate equations with the Biacore Bioevaluation software. […] Each data set, which consists of a series of sensorgrams from injections of different concentration of analyte over the same surface, is analyzed using kinetic models from Bioevaluation software.
# [2] = target: Transforming Growth Factor-Beta1 (TGF-β1) (Homo sapiens, UniProt P01137); assay: as above; details: plasmon surface resonance (Biacore T200)
# Chain of Transforming Growth Factor-Beta1 (TGF-β1) (P01137 279-390 limits assumed, species assumed): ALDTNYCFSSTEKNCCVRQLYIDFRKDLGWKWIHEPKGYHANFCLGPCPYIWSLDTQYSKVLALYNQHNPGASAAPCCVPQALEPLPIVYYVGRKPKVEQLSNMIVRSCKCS
# Protocol: as §1
# [3] = target: epidermal growth factor (EGF) (Homo sapiens, UniProt P01133); assay: as above; details: plasmon surface resonance (Biacore T200)
# Chain of epidermal growth factor (EGF) (P01133 971-1023 limits assumed, species assumed): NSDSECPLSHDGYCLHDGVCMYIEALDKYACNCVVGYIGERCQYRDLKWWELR
# Protocol: as §1
# [4] = target: insulin-like growth factor-1 (IGF-1) (Homo sapiens, UniProt P05019); assay: as above; details: plasmon surface resonance (Biacore T200)
# Chain of insulin-like growth factor-1 (IGF-1) (P05019 49-118, species assumed): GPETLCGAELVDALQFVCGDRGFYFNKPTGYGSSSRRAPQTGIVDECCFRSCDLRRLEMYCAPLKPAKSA
# Protocol: as §1
# burn wounds [5] = assay: Topical treatment of porcine deep partial-thickness burns (PLO gel); assay type: in vivo, pig; details: 48-hour debrided wounds, 10 days after wounding, vs control or cP12 (FIG. 6)
# Protocol: Four female, 20-30 kg, domestic pigs were used for cutaneous wound procedures.
# Study Protocol: The animals were sedated with Talazine (Tiletamine and Zolazepam, Fort Dodge Lab, Fort Dodge, Iowa) 5 mg/kg IM. The pigs were then intubated endotracheally and maintained under a surgical plane of anesthesia with isoflurane 0.5-2.5% in room air. The flank and back hair were clipped with electric hair clippers and the skin was scrubbed with a povidone iodine solution.
# Standardized deep partial-thickness burns were created on the animals' backs and flanks by applying a 2.5-cm by 2.5-cm, 150-gram aluminum bar preheated in hot water to 80° C. The burns were created on either side of the vertebral column between the forelegs and hind legs. The heated bar was wiped dry just prior to application to prevent water droplets from creating a steam burn on the skin. The bar was then placed at a vertical position perpendicular to the skin's surface and applied for a period of 20 seconds with all pressure supplied by gravity. […] 24 burns were evenly distributed on both sides of the back of four pigs. […] Debridement was performed by gently rubbing dry gauze against the surface of the burn until the necrotic epidermis was peeled away from the entire burn surface. Interventions: On the back skin of each pig, equal sets of 4 burns were randomly treated with one of the 6 study treatments. […]
# burn wounds [6] = assay: Intravenous treatment in porcine vertical progression burn model; assay type: in vivo, pig; details: intravenous infusion 0.001, 0.01 or 0.1 mg/kg
# Protocol: The vertical progression burn model (as shown in above topical experiment) was used to create burns on the backs of each of 4 pigs. Twenty burns (80° C./20 seconds) were made on the backs of each pig—one set of burns was made 8 hours prior to infusion, the second set was made 4 hours prior to infusion. Three pigs were treated with infusions of 0.001, 0.01 or 0.1 mg/kg of cNP8 and one pig was treated with an infusion of buffer, as control. Lyophilized cNP8 was reconstituted in PBS (11.6 mg/ml corrected-based on 75% pure) to get a 5 mM stock solution in the laboratory and filtered with a syringe filter with 0.22 um membrane. The concentration of filtered cNP8 solution was determined by reading OD280 and the concentration was calculated based on OD280=6.76 per mM cNP8. The cNP8 was diluted to 5 mM with PBS as necessary. The filtered cNP8 solution was aliquoted and stored at −80° C. Just before infusion, cNP8 was further diluted: a) 1:270 with PBS to get a 0.019 mM cNP8 solution. The injection amount was 3 ml/kg body weight of 0.019 mM cNP8 which is equal to 0.1 mg/kg body weight. b) 1:2700 with PBS to get a 0.0019 mM cNP8 solution. The injection was 3 ml/kg body weight of 0.0019 mM cNP8 which is equal to 0.01 mg/kg body weight. c) 1:27000 with PBS to get a 0.00019 mM cNP8 solution. The injection amount was 3 ml/kg body weight of 0.00019 mM cNP8 which is equal to 0.001 mg/kg body weight. […]
compound,measurement,setting,value
"CC[C@H](C)[C@@H]1NC(=O)[C@H](Cc2c[nH]cn2)NC(=O)[C@H](C(C)C)NC(=O)[C@H](CO)NC(=O)CNC(=O)[C@H](CCCCN)NC(=O)[C@@H]2CCCN2C(=O)[C@H](CCCNC(=N)N)NC(=O)[C@H](Cc2c[nH]c3ccccc23)NC(=O)[C@H](CCCNC(=N)N)NC(=O)[C@H](CC(C)C)NC(=O)CNC(=O)[C@H](Cc2ccc(O)cc2)NC(=O)[C@H](CCCCN)NC(=O)CNC1=O [cNP8, HIGKYGLRWRPKGSV] (cyclo(HIGKYGLRWRPKGSV))",bioactivity compared with other peptides,[1],equivalent or better bioactivity; also recorded: much higher bioactivity than that of P12
same,promotion of survival of adult human dermal fibroblasts in the presence of PDGF-BB,[1],promoted the survival of adult human dermal fibroblasts
same,binding to PDGF-BB,PDGF-BB,bind
same,binding to TGF-β1,[2],bind
same,binding to EGF,[3],did not bind
same,binding to IGF-1,[4],did not bind
same,re-epithelialization,burn wounds [5],markedly increased
same,re-epithelialization,burn wounds [6]; day 10 post-injury (FIG. 7),markedly increased; also recorded: increase of re-epithelialization
same,re-epithelialization,burn wounds [6]; day 14 post-injury (FIG. 8),markedly increased; also recorded: increase of re-epithelialization
